Test results taken from ChEMBL document CHEMBL5528070, “Design and Synthesis of Dual-Target Inhibitors Targeting Androgen Receptors and Glucocorticoid Receptors to Overcome Antiandrogen Resistance in Castration-Resistant Prostate Cancer” (J Med Chem, 2024).
pIC50: −log10 of the molar value. Blank lines part the entries; values can stand above or below the compound they belong to.

Assays:
[1] = biological target: T1, Androgen receptor (Homo sapiens, UniProt P10275)
T1 sequence (P10275 whole entry): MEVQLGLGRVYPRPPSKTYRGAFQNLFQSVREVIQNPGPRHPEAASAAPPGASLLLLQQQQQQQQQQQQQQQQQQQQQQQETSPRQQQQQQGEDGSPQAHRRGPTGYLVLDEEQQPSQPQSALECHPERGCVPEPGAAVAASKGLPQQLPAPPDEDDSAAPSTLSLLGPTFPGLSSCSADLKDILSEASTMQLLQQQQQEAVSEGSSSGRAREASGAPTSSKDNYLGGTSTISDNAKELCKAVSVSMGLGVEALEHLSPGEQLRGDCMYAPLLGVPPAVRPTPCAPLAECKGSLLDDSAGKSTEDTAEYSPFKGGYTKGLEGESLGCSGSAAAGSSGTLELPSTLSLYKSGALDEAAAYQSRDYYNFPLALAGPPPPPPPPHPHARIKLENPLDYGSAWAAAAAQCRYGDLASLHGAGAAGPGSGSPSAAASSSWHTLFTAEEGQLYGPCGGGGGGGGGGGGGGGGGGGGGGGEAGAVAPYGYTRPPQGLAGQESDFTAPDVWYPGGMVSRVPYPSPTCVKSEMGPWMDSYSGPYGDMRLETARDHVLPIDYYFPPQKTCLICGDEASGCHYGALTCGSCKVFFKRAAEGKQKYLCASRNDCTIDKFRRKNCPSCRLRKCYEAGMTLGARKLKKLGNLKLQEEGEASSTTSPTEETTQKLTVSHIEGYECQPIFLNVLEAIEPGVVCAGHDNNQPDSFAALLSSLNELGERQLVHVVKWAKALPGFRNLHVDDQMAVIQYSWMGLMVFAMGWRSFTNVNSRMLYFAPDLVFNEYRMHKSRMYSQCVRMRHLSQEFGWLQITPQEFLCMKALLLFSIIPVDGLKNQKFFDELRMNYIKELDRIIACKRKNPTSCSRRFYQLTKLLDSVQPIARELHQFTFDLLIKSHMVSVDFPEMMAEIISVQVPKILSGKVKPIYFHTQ

[2] = biological target: T2, Glucocorticoid receptor (Homo sapiens, UniProt P04150)
T2 sequence (P04150 whole entry): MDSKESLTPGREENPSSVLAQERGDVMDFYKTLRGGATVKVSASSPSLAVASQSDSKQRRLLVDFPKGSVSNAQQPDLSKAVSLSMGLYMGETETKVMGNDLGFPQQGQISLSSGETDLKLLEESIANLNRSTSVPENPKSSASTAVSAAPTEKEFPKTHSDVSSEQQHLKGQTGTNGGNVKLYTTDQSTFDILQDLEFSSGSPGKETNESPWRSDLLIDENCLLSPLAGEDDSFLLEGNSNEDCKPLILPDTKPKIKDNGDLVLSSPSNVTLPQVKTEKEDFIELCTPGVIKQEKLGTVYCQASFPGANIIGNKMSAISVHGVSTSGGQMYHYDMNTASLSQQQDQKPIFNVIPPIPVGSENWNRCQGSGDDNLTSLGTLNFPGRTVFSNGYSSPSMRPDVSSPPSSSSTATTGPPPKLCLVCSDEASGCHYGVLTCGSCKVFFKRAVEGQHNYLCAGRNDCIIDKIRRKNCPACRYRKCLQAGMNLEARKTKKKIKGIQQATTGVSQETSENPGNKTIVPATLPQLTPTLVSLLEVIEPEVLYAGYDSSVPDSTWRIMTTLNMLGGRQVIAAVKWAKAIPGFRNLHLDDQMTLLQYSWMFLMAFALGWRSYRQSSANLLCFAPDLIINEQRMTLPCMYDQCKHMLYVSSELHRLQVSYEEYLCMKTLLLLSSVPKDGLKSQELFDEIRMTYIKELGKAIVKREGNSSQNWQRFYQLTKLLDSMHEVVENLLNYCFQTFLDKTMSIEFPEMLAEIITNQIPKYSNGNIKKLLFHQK
Description: (§1) Inhibition of glucocorticoid receptor transcription in human PC-3 cells cotransfected with MMTV-luc and renilla plasmid at incubated for 24 hrs by Dual luciferase assay

[3] = tested on: LNCaP; assay: Antiproliferative activity against human LNCaP cells assessed as reduction in cell viability measured after 72 hrs by CCK-8 method
[4] = tested on: LNCaP C4-2; assay: Antiproliferative activity against human C4-2 cells assessed as reduction in cell viability measured after 72 hrs by CCK-8 method; details: LNCaP C4-2, 72 h
[5] = tested on: DU-145; assay: Antiproliferative activity against human DU-145 cells assessed as reduction in cell viability measured after 72 hrs by CCK-8 method; details: DU-145, 72 h
[6] = tested on: PC-3; assay: Antiproliferative activity against human PC-3 cells assessed as reduction in cell viability measured after 72 hrs by CCK-8 method; details: PC-3, 72 h
[7] = Antiproliferative activity against African green monkey COS-7 cells assessed as reduction in cell viability measured after 72 hrs by CCK-8 method; details: chlorocebus aethiops
[8] = tested on: CWR22R; assay: Antiproliferative activity against human 22Rv1 cells assessed as reduction in cell viability measured after 72 hrs by CCK-8 method; details: 22Rv1, 72 h
[9] = biological target: T2, Glucocorticoid receptor; details: pc-3
Description: as §1

[10] = biological target: T1, Androgen receptor; assay: Antagonist activity at androgen receptor in human LNCaP cells incubated for 24 hrs by luminescence based firefly luciferase assay

- pIC50 [1]: 5.77
Structure (SMILES): CCOC(=O)c1ccc(NC(=O)c2cccc(S(=O)(=O)N3CCCc4ccccc43)c2)s1

- pIC50 [1]: 6.70
Structure (SMILES): O=C(Nc1ccc(C(=O)NC2CC2)s1)c1cccc(S(=O)(=O)N2CCCc3ccccc32)c1

- pIC50 [1]: 6.92
Structure (SMILES): CCOC(=O)c1ccc(NC(=O)c2ccc(S(=O)(=O)Nc3ccc(C)cc3)cc2)s1

- pIC50 [1]: 6.92
Structure (SMILES): O=C(Nc1ccc(C(=O)NC23C[C@H]4C[C@H](C2)C[C@@H](C3)C4)s1)c1cccc(S(=O)(=O)N2CCCc3ccccc32)c1

- pIC50 [1]: < 5.30
Structure (SMILES): Cc1ccc(NC(=O)c2ccc(NC(=O)c3ccc(S(=O)(=O)N4CCCc5ccccc54)cc3)s2)cc1

Continued, compound first:

Structure (SMILES): CCOC(=O)c1ccc(NC(=O)c2cccc(S(=O)(=O)Nc3ccc4ccccc4c3)c2)s1
- pIC50 [2]: < 5.30

Structure (SMILES): CC(O)c1cc(C(=O)N[C@@H](C)Cn2ccc(-c3ccc(C#N)c(Cl)c3)n2)n[nH]1 (stereo not given in full) [DAROLUTAMIDE]
- CC50 [3]: 7.04 µM
- CC50 [4]: 18.8 µM
- CC50 [5]: > 50 µM
- CC50 [6]: > 50 µM
- CC50 at 72 h [7]: > 50 µM
- CC50 [8]: > 50 µM

Structure (SMILES): CNC(=O)c1ccc(N2C(=S)N(c3cnc(C#N)c(C(F)(F)F)c3)C(=O)C23CCC3)cc1F [APALUTAMIDE]
- CC50 [3]: 9.72 µM
- CC50 [4]: 41.7 µM
- CC50 [5]: > 50 µM
- CC50 [6]: > 50 µM
- CC50 at 72 h [7]: > 50 µM
- CC50 [8]: > 50 µM

Structure (SMILES): CNC(=O)c1ccc(N2C(=S)N(c3ccc(C#N)c(C(F)(F)F)c3)C(=O)C2(C)C)cc1F [ENZALUTAMIDE]
- IC50 [9]: Not Active

Structure (SMILES): CCc1cccc(NS(=O)(=O)c2cc3c4c(c2)CCC(=O)N4CCC3)c1
- pIC50 [10]: 6.40
